Reference: patent US20140094462A1, “SONIC HEDGEHOG MODULATORS” (priority 2009, published 2014)

Target: T1, ShhN protein (Homo sapiens, UniProt Q15465)
T1 construct: auto-cleavage of full length Shh into an active 20 kD N-terminal fragment (ShhN); purchased R&D Systems
Assay: Surface Plasmon Resonance (SPR) protein binding assay on immobilized ShhN
Details: SPR, Biacore T100, ShhN immobilized on CM4 chip, 25° C., compound 0.78 μM-25 μM; read-out: KD
Procedure: Biacore™ T100 (GE Healthcare, Uppsala, Sweden) was used to perform the experiments described herein. Sensor surface preparation and interaction analyses experiments were performed at 25° C.
Control surfaces were prepared similarly without protein derivatization and were utilized as a reference surfaces for compound binding experiments.
Zero concentration blank buffer cycles were included as negative control samples.
Data analysis was carried out using Biacore T100 evaluation software v1.1.1. […] Solvent correction was then applied as described previously.

T1 sequence (Q15465 24-197 limits assumed, species assumed): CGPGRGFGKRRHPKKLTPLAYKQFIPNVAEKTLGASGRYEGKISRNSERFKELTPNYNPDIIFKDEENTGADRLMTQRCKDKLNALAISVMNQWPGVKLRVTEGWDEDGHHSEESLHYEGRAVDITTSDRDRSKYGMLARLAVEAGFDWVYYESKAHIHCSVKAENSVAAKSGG

| SMILES | Kd |
| --- | --- |
| CC(C)c1ccc(CNC(=O)C[C@@H]2C/C=C/CCC(=O)O[C@H](c3ccccc3)CNC2=O)cc1 [EJ] | 1 to 100 µM |
| O=C(C[C@@H]1C/C=C/CCC(=O)O[C@H](c2ccccc2)CNC1=O)NCc1ccc(Cl)c(C(F)(F)F)c1 [EK] | > 100 µM |
| O=C(C[C@@H]1C/C=C/CCC(=O)O[C@H](c2ccccc2)CNC1=O)NCCc1ccc(Cl)cc1 [EL] | > 100 µM |
| O=C(C[C@@H]1C/C=C/CCC(=O)O[C@H](c2ccccc2)CNC1=O)Nc1ccc(Cl)cc1 [EM] | 1 to 100 µM |
| O=C(C[C@@H]1C/C=C/CCC(=O)O[C@H](c2ccccc2)CNC1=O)NCc1ccccc1 [EN] | 1 to 100 µM |
| O=C(C[C@@H]1C/C=C/CCC(=O)O[C@H](c2ccccc2)CNC1=O)NCc1cccc(Cl)c1 [EO] | > 100 µM |
| CN(Cc1ccc(Cl)cc1)C(=O)C[C@@H]1C/C=C/CCC(=O)O[C@H](c2ccccc2)CN(C)C1=O [EP] | > 100 µM |
| COc1ccc(CNC(=O)C[C@@H]2C/C=C/CCC(=O)O[C@H](c3ccccc3)CNC2=O)cc1 [EQ] | 1 to 100 µM |
| CN1CCN(C(=O)C[C@@H]2C/C=C/CCC(=O)O[C@H](c3ccccc3)CNC2=O)CC1 [ET] | 1 to 100 µM |
| O=C1CC/C=C/C[C@@H](CC(=O)N2CCN(c3ncccn3)CC2)C(=O)NC[C@@H](c2ccccc2)O1 [EU] | 1 to 100 µM |
| O=C(C[C@@H]1C/C=C/CCC(=O)O[C@H](c2ccccc2)CN(Cc2ccccc2)C1=O)NCc1ccc(Cl)cc1 [EV] | > 100 µM |
| O=C(C[C@@H]1C/C=C/CCC(=O)O[C@H](c2ccccc2)CNC1=O)NC(c1ccccc1)c1ccccc1 [EW] | > 100 µM |
| N[C@@H]1C/C=C/CCC(=O)N[C@H](c2ccccc2)COC1=O [Example AC, (3R,11R,E)-11-amino-3-phenyl-1-oxa-4-azacyclododec-8-ene-5,12-dione] | 1 to 100 µM |
| C[C@H]1[C@@H](c2ccccc2)OC(=O)CC[C@H](O)[C@@H](O)C[C@@H](CC(=O)NCc2ccc(Cl)cc2)C(=O)N1C [Example BB, N-(4-chlorobenzyl)-2-((2R,3S,6S,8S,9S)-8,9-dihydroxy-3,4-dimethyl-5,12-dioxo-2-phenyl-1-oxa-4-azacyclododecan-6-yl)acetamide] | 1 to 100 µM |
| C[C@@H]1CCCCCC(=O)OC[C@@H]2CCCN2C1=O [Example BE, (9R,14aS)-9-methyldecahydro-1H-pyrrolo[2,1-c][1,4]oxaazacyclododecine-3,10-dione] | 1 to 100 µM |
| O=C(C[C@@H]1C/C=C/CCC(=O)N[C@@H]2c3ccccc3C[C@@H]2OC1=O)NCc1ccc(Cl)cc1 [Example BJ, N-(4-chlorobenzyl)-2-((3S,10aR,15aS,E)-2,9-dioxo-2,3,4,7,8,9,10,10a,15,15a-decahydroindeno[2,1-b][1,4]oxaazacyclododecin-3-yl)acetamide] | 1 to 100 µM |

| SMILES | Kd |
| --- | --- |
| CN1C[C@@H](c2ccccc2)OC(=O)CC/C=C/C[C@@H](Cc2ccc(Cl)cc2)C1=O [Example BR, (2R,6S,E)-6-(4-chlorobenzyl)-4-methyl-2-phenyl-1-oxa-4-azacyclododec-8-ene-5,12-dione] | > 100 µM |
| C[C@@H]1C[C@H](O)[C@@H](O)CCC(=O)N[C@H](c2ccccc2)COC1=O [Example BU, (3R,8S,9S,11R)-8,9-dihydroxy-11-methyl-3-phenyl-1-oxa-4-azacyclododecane-5,12-dione] | 1 to 100 µM |
| C[C@@H]1C/C=C/CCC(=O)N[C@@H]2c3ccccc3C[C@@H]2OC1=O [Example BV, (3R,10aR,15aS,E)-3-methyl-3,4,7,8,10,10a,15,15a-octahydroindeno[2,1-b][1,4]oxaazacyclododecine-2,9-dione] | 0.1 to 1 µM |
| C[C@@H]1C/C=C/C[C@@H](CC(=O)NCc2ccc(Cl)cc2)C(=O)NC[C@@H](c2ccccc2)OC1=O [Example EA, N-(4-chlorobenzyl)-2-((2R,6S,11R,E)-11-methyl-5,12-dioxo-2-phenyl-1-oxa-4-azacyclododec-8-en-6-yl)acetamide] | 0.1 to 1 µM |
| N[C@H]1C/C=C/C[C@@H](CC(=O)NCc2ccc(Cl)cc2)C(=O)NC[C@@H](c2ccccc2)OC1=O [Example EB, 2-((2R,6S,11S,E)-11-amino-5,12-dioxo-2-phenyl-1-oxa-4-azacyclododec-8-en-6-yl)-N-(4-chlorobenzyl)acetamide] | 1 to 100 µM |
| O=C(C[C@@H]1C/C=C/C[C@H](O)C(=O)O[C@H](c2ccccc2)CNC1=O)NCc1ccc(Cl)cc1 [Example EC, N-(4-chlorobenzyl)-2-((2R,6S,11S,E)-11-hydroxy-5,12-dioxo-2-phenyl-1-oxa-4-azacyclododec-8-en-6-yl)acetamide] | < 0.1 µM |
| O=C(C[C@@H]1C/C=C/C[C@H](Cc2ccccc2)C(=O)N[C@H](c2ccccc2)COC1=O)NCc1ccc(Cl)cc1 [Example ED, 2-((3R,6R,11S,E)-6-benzyl-5,12-dioxo-3-phenyl-1-oxa-4-azacyclododec-8-en-11-yl)-N-(4-chlorobenzyl)acetamide] | > 100 µM |
| C[C@H]1C/C=C\C[C@@H](CC(=O)NCc2ccc(Cl)cc2)C(=O)OC[C@@H](c2ccccc2)NC1=O [Example EE, N-(4-chlorobenzyl)-2-((3R,6S,11S,Z)-6-methyl-5,12-dioxo-3-phenyl-1-oxa-4-azacyclododec-8-en-11-yl)acetamide] | > 100 µM |
| CN1C[C@@H](c2ccccc2)OC(=O)CC/C=C/C[C@@H](CC(=O)NCC2CCOCC2)C1=O [Example EX, 2-((2R,6S,E)-4-methyl-5,12-dioxo-2-phenyl-1-oxa-4-azacyclododec-8-en-6-yl)-N-((tetrahydro-2H-pyran-4-yl)methyl)acetamide] | 1 to 100 µM |
| COc1ccccc1[C@@H]1COC(=O)[C@H](CC(=O)NCc2ccc(Cl)cc2)C/C=C/CCC(=O)N1 [Example EY, N-(4-chlorobenzyl)-2-((3R,11S,E)-3-(2-methoxyphenyl)-5,12-dioxo-1-oxa-4-azacyclododec-8-en-11-yl)acetamide] | > 100 µM |
| C[C@H]1[C@@H](c2ccccc2)OC(=O)CC/C=C\C[C@@H](CC(=O)NCc2ccc(Cl)cc2)C(=O)N1C [Example EZ, N-(4-chlorobenzyl)-2-((2R,3S,6S,Z)-3,4-dimethyl-5,12-dioxo-2-phenyl-1-oxa-4-azacyclododec-8-en-6-yl)acetamide] | > 100 µM |
| C[C@H]1[C@@H](c2ccccc2)OC(=O)CC/C=C/C[C@@H](CC(=O)NCCCC(F)(F)F)C(=O)N1C [Example FA, 2-((2R,3S,6S,E)-3,4-dimethyl-5,12-dioxo-2-phenyl-1-oxa-4-azacyclododec-8-en-6-yl)-N-(4,4,4-trifluorobutyl)acetamide] | > 100 µM |
| O=C(C[C@@H]1CCCCCC(=O)OC[C@@H]2CCCN2C1=O)NCc1ccc(Cl)cc1 [Example FB, N-(4-chlorobenzyl)-2-((9S,14aS)-3,10-dioxododecahydro-1H-pyrrolo[2,1-c][1,4]oxaazacyclododecin-9-yl)acetamide] | 1 to 100 µM |
| C[C@@H]1NC(=O)[C@H](CC(=O)NCc2ccc(Cl)cc2)C/C=C/CCC(=O)O[C@@H]1c1ccccc1 [FP, N-(4-chlorobenzyl)-2-((2R,3S,6S,E)-3-methyl-5,12-dioxo-2-phenyl-1-oxa-4-azacyclododec-8-en-6-yl)acetamide] | > 100 µM |
| CC(C)[C@@H]1COC(=O)[C@H](CC(=O)NCc2ccc(Cl)cc2)C/C=C/CCC(=O)N1 [FQ, N-(4-chlorobenzyl)-2-((3R,11S,E)-3-isopropyl-5,12-dioxo-1-oxa-4-azacyclododec-8-en-11-yl)acetamide] | 0.1 to 1 µM |
